This is an account of results in EP0111112A1, “Granular pesticidal compositions coated with hydrophobic solids with attendant reduced dermal toxicity” (priority 1982, dated 1984).

The nature of data set [1]: Dermal toxicity of pesticidal formulations in male albino rabbits. The conditions noted are these: rabbit, in vivo, topical or ocular, 24 hours contact, observed 14 days. From the text: Five male albino rabbits weighing approximately 2.2 to 3.5 kilograms are selected for each dosage level. The hair is shaved from the entire trunk.
The following materials are used in dermal toxicity tests: • (a.) Saran tubing or "vinylite" film VU 1900, 30.5 cm (12") wide, 0.04 millimeter in thickness, and long enough to fit around the rabbit; (b.) Felt cloth bandages measuring approximately 22.9 x 45.7 cm (9" x 18"); (c.) pieces of 3.8 cm (1.5") adhesive tape approximately 35.6 cm (14") long.
Granular material to be evaluated is placed in the center of the plastic film and is moistened with water. The rabbits' underside is then moistened with water, and the animals are placed, belly down, on. the material. The plastic is then brought up and around the animal and secured at each end with strips of adhesive tape. The felt cloth is then placed under the belly and brought up and around the animal and secured to the body with the remaining two strips of adhesive tape. The "cuff" is removed from the test animals 24 hours after dosing, and any remaining material is brushed away. If the test material cannot be removed, the animal is fitted with a fiber collar which prevents the animal from licking the treatment area. […]
The dermal LD50 values (mg/kg/ body weight) are. calculated for experimental data for the compositions evaluated. […]

Data set [2] is described as follows: Dermal toxicity of pesticidal formulations in male rats. The conditions noted are these: rat, in vivo, topical or ocular, male Wistar rats, 24 hours contact, observed 14 days. The protocol:
Five male Wistar rats weighing approximately 209 to 277 g are selected for each dosage level. The hair is shaved from the ventral surface of the abdomen.
Granular material for evaluation is mixed with an equal weight of water on an aluminum foil backed with a plastic adhesive strapping. This preparation is then applied to the shaven ventral surface of the animal and fastened in place with adhesive strapping. After a contact time of 24 hours, the strapping is removed and the skin is washed with soap and water. The animals are then observed for 14 days for skin irritation or mortality. After this observation period, the animals are sacrificed and weighed.
Dermal LD50 values (mg/kg body weight) are calculated from experimental data for the compositions evaluated. The LD50 values obtained are averaged. […] Compositions A and B of Table III are as defined in Table I.

What is called LD50 is the dose at which mortality reaches 50%.

As for `CCOP(=S)(OCC)SCSC(C)(C)C` [O,O-diethyl S-{[(1,1-dimethylethyl)-thio]methyl}phosphorodithioate], the LD50 at 336 h in data set [1] and in data set [2] was 1 to 2 mg/kg each time.
